Measurements: paper PMC4741889, “Ligand-based chemoinformatic discovery of a novel small molecule inhibitor targeting CDC25 dual specificity phosphatases and displaying in vitro efficacy against melanoma cells” (Oncotarget, 2015)

Tests used:
Format in all cases: cell-based, human
A2058 cells = assay: Intracellular ROS level (DCFH-DA), A2058 cells
Experimental: The high redox reactivity of quinonoid molecules, like compound 7, could greatly perturb the intracellular redox state. […] The oxidant effect of 7 was also evaluated after cell pre-treatment with two antioxidant molecules, such as N-acetyl-cysteine (NAC) and the specific inhibitor of NADPH oxidase, apocynin. To this aim, A2058 and SAN cells were pre-incubated for 1 h with 10 mM NAC or 45 min with 0.5 mM apocynin and then treated for 4 h with 100 μM compound 7. […] The cytotoxic activity of 7 could be mediated by the observed increase of ROS level.
The intracellular ROS level was monitored using the oxidation-sensitive fluorescence probe DCFH-DA. Cells were seeded into 6-well-plates (3 × 10^5 cells/plate) for 24 h at 37°C and then treated at various times with 100 μM compound 7 or 0.5% DMSO. DCFH-DA was added in the dark at 10 μM final concentration 30-min before the end of each incubation; then, cells were collected, washed in PBS, and finally resuspended in 500 μL PBS for fluorimetric analysis. Measurements were realized in a Cary Eclipse fluorescence spectrophotometer (Varian); excitation and emission wavelengths were set at 485 nm and 530 nm, respectively; both excitation and emission slits were set at 10 nm. The effect of 7 on ROS production was also estimated after pretreatment of cells with 10 mM NAC for 1 h.

[1] = tested on: Bcl-2 and Bax protein levels; assay: Western blotting of Bcl-2 and Bax protein levels in SAN cells; conditions: 100 μM, 8 or 16 h
Experimental: Mitochondria represent the primary source of ROS, as well the target of ROS action, and therefore, compound 7 could affect their functionality in melanoma cells. […] Proteins belonging to the B-cell lymphoma-2 (Bcl-2) family are involved in the modulation of the mitochondrial functionality. Therefore, we have evaluated the levels of the anti-apoptotic protein Bcl-2, as well as that of the pro-apoptotic Bcl-2-associated X protein (Bax), after incubation with 7 (Figure 10B). […] To further investigate the occurrence of a mitochondrial-mediated apoptosis induced by 7, the caspase-9 activity was assayed. […]
A2058 cells were seeded into 6-well-plates (3 × 10^5 cells/plate) for 24 h at 37°C and then treated at different times with 100 μM compound 7 or 0.5% DMSO. […] The protein concentration was determined by the method of Bradford, using bovine serum albumin (BSA) as standard. […] Membranes were then analysed by an enhanced chemiluminescence reaction, using Super Signal West Pico kit (Pierce) according to manufacturer's instruction; signals were visualized by autoradiography.
Supplementary Figure S6: Effect of compound 7 on some apoptotic mitochondrial markers in SAN cells. […] Total protein extracts from SAN cells, incubated with 0.5% DMSO or 100 μM compound 7 for 8 or 16 h,were analyzed by Western blotting. […]

caspase-9 activity = assay: Caspase-9 enzymatic activity in A2058 cells; conditions: A2058, 100 μM, 24 h
Experimental: Mitochondria represent the primary source of ROS, as well the target of ROS action, and therefore, compound 7 could affect their functionality in melanoma cells. […] Proteins belonging to the B-cell lymphoma-2 (Bcl-2) family are involved in the modulation of the mitochondrial functionality. Therefore, we have evaluated the levels of the anti-apoptotic protein Bcl-2, as well as that of the pro-apoptotic Bcl-2-associated X protein (Bax), after incubation with 7 (Figure 10B). […] To further investigate the occurrence of a mitochondrial-mediated apoptosis induced by 7, the caspase-9 activity was assayed. […] The effect of compound 7 was investigated also in SAN cells and the overall results were similar to those observed in A2058 (Supplementary Figure S6).
To estimate caspase-3 and caspase-9 activity during the treatment with compound 7, the respective enzymatic activities were measured by using caspase-3 and -9 fluorimetric assay kits, according to the manufacturer's protocol, essentially as previously described. Briefly, cells were seeded into 75 cm^2 plates (2 × 10^6 cells/plate) for 24 h at 37°C and then treated with 100 μM 7 or 0.5% DMSO. […] Cell lysates were incubated with 50 μM DEVD-AFC or LEHD-AFC substrates at 37°C for 2 h, to detect caspase-3 or caspase-9 activity, respectively, using a Cary Eclipse fluorescence spectrophotometer (Varian). […]

In the case of `O=C(O)C1CCCCC1c1c2ccc(=O)cc-2oc2cc(O)ccc12` (stereo not drawn) [Compound 7, 2-(6-hydroxy-3-oxo-3H-xanthen-9-yl)cyclohexanecarboxylic acid], the “intracellular ROS level” value (A2058 cells; A2058, 100 μM, significant after 4 h) is reported as “time-dependent increase of the ROS level”, the “increase of ROS level after apocynin pre-treatment” value (A2058 cells; A2058, 0.5 mM apocynin 45 min, then 100 μM 7 for 4 h) is reported as “did not prevent the increase of ROS level” and the “increase of ROS level after NAC pre-treatment” value (A2058 cells; A2058, 10 mM NAC 1 h, then 100 μM 7 for 4 h) is reported as “prevented by the NAC treatment”. For the same compound, the Bcl-2/Bax ratio [1] was “significantly decreased”, the “Bcl-2 and Bax protein levels” value [1] was “both levels of Bcl-2 and Bax were reduced” and the caspase-9 activity (caspase-9 activity) was “clear increase of caspase-9 activity”.
